According to patent US20230085307A1, “PYRIDAZINONE COMPOUND AND HERBICIDE” (NISSAN CHEMICAL CORPORATION, priority 2019, published 2023):

Legend:
late watergrass [1] = assay: Test Example 1: herbicidal activity, application before weed generation under submerged conditions (Table 16, symbol A); format: in vivo, late watergrass (Echinochloa oryzicola); details: 320 g/ha applied herbicide
How it was run: (§1)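 Emulsion formulation, water-diluted to set dose, was put onto the flooded surface (4 cm depth, alluvial soil) the same day weeds were sown and 2.5-leaf rice transplanted. After 3 weeks at 25-30 °C under glass, each species was rated 0 (≤5% kill) to 5 (≥90% kill).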

Japanese bulrush [2] = assay: Test Example 1: herbicidal activity, application before weed generation under submerged conditions (Table 16, symbol B); format: in vivo, Japanese bulrush (Schoenoplectus juncoides); details: 320 g/ha applied herbicide
How it was run: as §1

oval-leafed pondweed [3] = assay: Test Example 1: herbicidal activity, application before weed generation under submerged conditions (Table 16, symbol C); format: in vivo, oval-leafed pondweed (Monochoria vaginalis); details: 320 g/ha applied herbicide
How it was run: as §1

late watergrass [4] = assay: Test Example 2: herbicidal activity, application during weed generation under submerged conditions (Table 17, symbol A); format: in vivo, late watergrass (Echinochloa oryzicola); details: AAH 320 g/ha; application during weed generation, submerged conditions
How it was run: (§2)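 Alluvial soil in Wagner pots was flooded to 4 cm depth and sown with the three weeds together; pots were kept in a greenhouse at 25° C. to 30° C. At the one to two leaf stage, an emulsion formulation diluted in water to a set rate went onto the water surface; scored three weeks later.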

Japanese bulrush [5] = assay: Test Example 2: herbicidal activity, application during weed generation under submerged conditions (Table 17, symbol B); format: in vivo, Japanese bulrush (Schoenoplectus juncoides); details: AAH 320 g/ha; application during weed generation, submerged conditions
How it was run: as §2

oval-leafed pondweed [6] = assay: Test Example 2: herbicidal activity, application during weed generation under submerged conditions (Table 17, symbol C); format: in vivo, oval-leafed pondweed (Monochoria vaginalis); details: AAH 320 g/ha; application during weed generation, submerged conditions
How it was run: as §2

barnyard grass [7] = assay: Test Example 3: herbicidal effect by foliage application, Wagner pot (Table 18, symbol H); format: in vivo, barnyard grass (Echinochloa crus-galli); details: amount of applied herbicide 320 g/ha
How it was run: (§3)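 Plants were sown in alluvial soil held under 0.1–0.5 cm standing water and grown 14 days in a greenhouse at 25–30 °C. An emulsifiable formulation, water-diluted to the set dose, was then sprayed onto the foliage, and effects were scored three weeks later using previously defined criteria.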

Chinese sprangletop = assay: Test Example 3: herbicidal effect by foliage application, Wagner pot (Table 18, symbol D); format: in vivo, chinese sprangletop (Leptochloa chinensis); details: amount of applied herbicide 320 g/ha
How it was run: as §3

rice flat sedge = assay: Test Example 3: herbicidal effect by foliage application, Wagner pot (Table 18, symbol E); format: in vivo, rice flat sedge (Cyperus iria); details: amount of applied herbicide 320 g/ha
How it was run: as §3

southern crabgrass = assay: Test Example 4: herbicidal effect by soil treatment (Table 19, symbol F); format: in vivo, southern crabgrass (Digitaria ciliaris); details: amount of applied herbicide 320 g/ha
How it was run: (§4)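 Scoring uses the grading scale of an earlier test, three weeks post-application. Treatment consists of spraying a diluted emulsion formulation across the surface of sterilized diluvial soil in which seeds are buried near 1.5 cm deep; boxes are kept in a greenhouse between 25° C. and 30° C.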

green foxtail = assay: Test Example 4: herbicidal effect by soil treatment (Table 19, symbol G); format: in vivo, green foxtail (Setaria viridis); details: amount of applied herbicide 320 g/ha
How it was run: as §4

barnyard grass [8] = assay: Test Example 4: herbicidal effect by soil treatment (Table 19, symbol H); format: in vivo, barnyard grass (Echinochloa crus-galli); details: amount of applied herbicide 320 g/ha
How it was run: as §4

wild oat = assay: Test Example 4: herbicidal effect by soil treatment (Table 19, symbol I); format: in vivo, wild oat (Avena fatua); details: amount of applied herbicide 320 g/ha
How it was run: as §4

blackgrass = assay: Test Example 4: herbicidal effect by soil treatment (Table 19, symbol J); format: in vivo, blackgrass (Alopecurus myosuroides); details: amount of applied herbicide 320 g/ha
How it was run: as §4

Italian ryegrass = assay: Test Example 4: herbicidal effect by soil treatment (Table 19, symbol K); format: in vivo, Italian ryegrass (Lolium multiflorum); details: amount of applied herbicide 320 g/ha
How it was run: as §4

windgrass = assay: Test Example 4: herbicidal effect by soil treatment (Table 19, symbol L); format: in vivo, windgrass (Apera spica-venti); details: amount of applied herbicide 320 g/ha
How it was run: as §4

velvetleaf = assay: Test Example 4: herbicidal effect by soil treatment (Table 19, symbol M); format: in vivo, velvetleaf (Abutilon theophrasti); details: amount of applied herbicide 320 g/ha
How it was run: as §4

redroot pigweed = assay: Test Example 4: herbicidal effect by soil treatment (Table 19, symbol N); format: in vivo, redroot pigweed (Amaranthus retroflexus); details: amount of applied herbicide 320 g/ha
How it was run: as §4

lambsquarters = assay: Test Example 4: herbicidal effect by soil treatment (Table 19, symbol O); format: in vivo, lambsquarters (Chenopodium album); details: amount of applied herbicide 320 g/ha
How it was run: as §4

chickweed = assay: Test Example 4: herbicidal effect by soil treatment (Table 19, symbol P); format: in vivo, common chickweed (Stellaria media); details: amount of applied herbicide 320 g/ha
How it was run: as §4

persian speedwell = assay: Test Example 4: herbicidal effect by soil treatment (Table 19, symbol R); format: in vivo, Persian speedwell (Veronica persica); details: amount of applied herbicide 320 g/ha
How it was run: as §4

Row | Compound | Herbicidal effect on A: late watergrass (grade 0-5) (late watergrass [1]) | Herbicidal effect on B: Japanese bulrush (grade 0-5) (Japanese bulrush [2]) | Herbicidal effect on C: oval-leafed pondweed (grade 0-5) (oval-leafed pondweed [3]) | herbicidal effect rating, A: late watergrass (late watergrass [4]) | herbicidal effect rating, B: Japanese bulrush (Japanese bulrush [5]) | herbicidal effect rating, C: oval-leafed pondweed (oval-leafed pondweed [6]) | herbicidal effect on H: barnyard grass (barnyard grass [7]) | herbicidal effect on D: Chinese sprangletop (Chinese sprangletop) | herbicidal effect on E: rice flat sedge (rice flat sedge) | herbicidal effect on F: southern crabgrass (southern crabgrass) | herbicidal effect on G: green foxtail (green foxtail) | herbicidal effect on H: barnyard grass (barnyard grass [8]) | herbicidal effect on I: wild oat (wild oat) | herbicidal effect on J: blackgrass (blackgrass) | herbicidal effect on K: Italian ryegrass (Italian ryegrass) | herbicidal effect on L: windgrass (windgrass) | herbicidal effect on M: velvetleaf (velvetleaf) | herbicidal effect on N: redroot pigweed (redroot pigweed) | herbicidal effect on O: lambsquarters (lambsquarters) | herbicidal effect on P: chickweed (chickweed) | also measured
1 | Cc1nn(C)c(=O)c(-c2c(-c3ccc(Cl)c(F)c3)sc3ccc(F)cc23)c1O [2-350] | 3 (Herbicidal rate of 40% or more and less than 70%) | 0 (Herbicidal rate of 5% or less (almost no effect)) | 0 (Herbicidal rate of 5% or less (almost no effect)) | 0 (Herbicidal rate of 5% or less (almost no effect)) | 2 (Herbicidal rate of 20% or more and less than 40%) | 0 (Herbicidal rate of 5% or less (almost no effect)) | 5 (Herbicidal rate of 90% or more (almost completely withered)) | 5 (Herbicidal rate of 90% or more (almost completely withered)) | 5 (Herbicidal rate of 90% or more (almost completely withered)) | 4 (Herbicidal rate of 70% or more and less than 90%) | 5 (Herbicidal rate of 90% or more (almost completely withered)) | 5 (Herbicidal rate of 90% or more (almost completely withered)) | 0 (Herbicidal rate of 5% or less (almost no effect)) | 0 (Herbicidal rate of 5% or less (almost no effect)) | 4 (Herbicidal rate of 70% or more and less than 90%) | 4 (Herbicidal rate of 70% or more and less than 90%) | 3 (Herbicidal rate of 40% or more and less than 70%) | 5 (Herbicidal rate of 90% or more (almost completely withered)) | 4 (Herbicidal rate of 70% or more and less than 90%) | 3 (Herbicidal rate of 40% or more and less than 70%) | herbicidal effect on R: persian speedwell (persian speedwell): 5 (Herbicidal rate of 90% or more (almost completely withered))
2 | CCCC(=O)Oc1c(C)nn(C)c(=O)c1-c1c(-c2ccc(Cl)c(F)c2)sc2ccc(F)cc12 [2-351] | 5 (Herbicidal rate of 90% or more (almost completely withered)) | 3 (Herbicidal rate of 40% or more and less than 70%) | 3 (Herbicidal rate of 40% or more and less than 70%) | 3 (Herbicidal rate of 40% or more and less than 70%) | 3 (Herbicidal rate of 40% or more and less than 70%) | 4 (Herbicidal rate of 70% or more and less than 90%) | 5 (Herbicidal rate of 90% or more (almost completely withered)) | 5 (Herbicidal rate of 90% or more (almost completely withered)) | 4 (Herbicidal rate of 70% or more and less than 90%) | 0 (Herbicidal rate of 5% or less (almost no effect)) | 0 (Herbicidal rate of 5% or less (almost no effect)) | 0 (Herbicidal rate of 5% or less (almost no effect)) | 0 (Herbicidal rate of 5% or less (almost no effect)) | 0 (Herbicidal rate of 5% or less (almost no effect)) | 0 (Herbicidal rate of 5% or less (almost no effect)) | 0 (Herbicidal rate of 5% or less (almost no effect)) | 0 (Herbicidal rate of 5% or less (almost no effect)) | 3 (Herbicidal rate of 40% or more and less than 70%) | 3 (Herbicidal rate of 40% or more and less than 70%) | 1 (Herbicidal rate of 5% or more and less than 20%) | herbicidal effect on R: persian speedwell (persian speedwell): 3 (Herbicidal rate of 40% or more and less than 70%)
3 | CCCC(=O)Oc1c(C)nn(C)c(=O)c1-c1c(-c2ccc(F)c(Cl)c2)sc2ccc(F)cc12 [2-353] | 2 (Herbicidal rate of 20% or more and less than 40%) | 0 (Herbicidal rate of 5% or less (almost no effect)) | 0 (Herbicidal rate of 5% or less (almost no effect)) | 4 (Herbicidal rate of 70% or more and less than 90%) | 3 (Herbicidal rate of 40% or more and less than 70%) | 3 (Herbicidal rate of 40% or more and less than 70%) | 5 (Herbicidal rate of 90% or more (almost completely withered)) | 5 (Herbicidal rate of 90% or more (almost completely withered)) | 5 (Herbicidal rate of 90% or more (almost completely withered)) |  |  |  |  |  |  |  |  |  |  |  | herbicidal effect, F: southern crabgrass (southern crabgrass): 3 (Herbicidal rate of 40% or more and less than 70%); herbicidal effect, G: green foxtail (green foxtail): 1 (Herbicidal rate of 5% or more and less than 20%); herbicidal effect, H: barnyard grass (barnyard grass [8]): 1 (Herbicidal rate of 5% or more and less than 20%); herbicidal effect, I: wild oat (wild oat): 0 (Herbicidal rate of 5% or less (almost no effect)); herbicidal effect, J: blackgrass (blackgrass): 0 (Herbicidal rate of 5% or less (almost no effect)); herbicidal effect, K: Italian ryegrass (Italian ryegrass): 4 (Herbicidal rate of 70% or more and less than 90%); herbicidal effect, L: windgrass (windgrass): 3 (Herbicidal rate of 40% or more and less than 70%); herbicidal effect, M: velvetleaf (velvetleaf): 2 (Herbicidal rate of 20% or more and less than 40%); herbicidal effect, N: redroot pigweed (redroot pigweed): 4 (Herbicidal rate of 70% or more and less than 90%); herbicidal effect, O: lambsquarters (lambsquarters): 4 (Herbicidal rate of 70% or more and less than 90%); herbicidal effect, P: chickweed (chickweed): 3 (Herbicidal rate of 40% or more and less than 70%); herbicidal effect, R: persian speedwell (persian speedwell): 3 (Herbicidal rate of 40% or more and less than 70%)
